In the NIST ThermoML archive (doi:10.1021/acs.jced.5b00694):
± gives the expanded uncertainty stated by the source.

Columns and labels:
[1] = xn = mol fraction of the nth substance listed; conditions: 101 kPa, Liquid; for viscosity: 297.85 K, Cone and plate viscometry; for mass density: 298.15 K, Vibrating tube method
[2] = 297.85 K; 101 kPa; Liquid; Cone and plate viscometry

O [water] + CCCC[P+](CCCC)(CCCC)CCCC.O=C[O-]
viscosity ([1]; x1 = 1): 0.9 ± 0.09 mPa·s | mass density ([1]; x1 = 1): 996.8 ± 0.6 kg/m3

CCCC[P+](CCCC)(CCCC)CCCC.O=C[O-] [tetrabutylphosphonium formate] + O
viscosity ([1]; x2 = 0.25): 356 ± 43 mPa·s | viscosity ([1]; x2 = 0.5): 146 ± 16 mPa·s | viscosity ([1]; x2 = 0.6): 97 ± 10 mPa·s | viscosity ([1]; x2 = 0.74): 48 ± 4.9 mPa·s | viscosity ([1]; x2 = 0.8): 35.3 ± 3.6 mPa·s | viscosity ([1]; x2 = 0.91): 14.4 ± 1.4 mPa·s | mass density ([1]; x2 = 0.25): 944 ± 1.2 kg/m3 | mass density ([1]; x2 = 0.32): 945.2 ± 1.1 kg/m3 | mass density ([1]; x2 = 0.5): 948 ± 1.2 kg/m3 | mass density ([1]; x2 = 0.6): 950.4 ± 1.4 kg/m3 | mass density ([1]; x2 = 0.74): 955.5 ± 1 kg/m3 | mass density ([1]; x2 = 0.8): 959.2 ± 0.9 kg/m3 | mass density ([1]; x2 = 0.91): 974.1 ± 0.7 kg/m3

O [water]
viscosity [2]: 0.9 ± 0.02 mPa·s
